Converted amounts (≈) assume the structure as drawn.
Key:
[1] = tested on: Staphylococcus aureus (ATCC29213); test: In-vitro anti-bacterial activity, microtitre plate assay, IC90 determination (non-mycobacterial strains); format: cell-based; details: 90% inhibitory concentration for bacterial growth, resazurin fluorescence; for IC90 STA B29213: 24 hours; for IC90: Staphylococcus aureus, ATCC29213, 24 h, read-out: IC90 STA B29213
Method in brief: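 Inoculum of about 100 TCID50 (10–60 CFU/well) in Mueller-Hinton broth, serial five-fold compound dilutions, 24 h at 37 °C in air. Growth read by resazurin fluorescence (ex 530/em 590 nm); IC90 in μg/ml as 90% growth inhibition.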

[2] = tested on: Mycobacterium smegmatis (ATCC607); test: In-vitro anti-bacterial activity against strain M. Smegmatis ATCC607; format: cell-based; details: 90% inhibitory concentration for bacterial growth, Alamar Blue fluorescence; for IC90 MSM 607: 48 hours
Method in brief: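 Serial five-fold compound dilutions in BSA-supplemented wells, inoculated with ~250 CFU/well in Mueller-Hinton broth, incubated 48 h at 37 °C, 5% CO2. Growth read by Alamar Blue fluorescence (ex 530/em 590 nm); IC90 in μg/ml.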

Compound | IC90 STA B29213 [1] [µg/mL] | IC90 MSM 607 [2] [µg/mL] | melting point [°C] | IC90 [1] [µg/mL] | IC90 ([2]; Mycolicibacterium smegmatis, ATCC607, 48 h, read-out: IC90 MSM 607) [µg/mL]
COc1nc2ccc(SC)cc2cc1C(c1ccc(Cl)cc1)C1(O)CCNC(c2ccc(F)cc2C)C1 (stereo not drawn) [Compound 273] | 3.39 (≈ 6.31 µM) | 1.70 (≈ 3.17 µM) | 204 |  | 
COc1nc2ccc(SC)cc2cc1C(c1ccc(Cl)cc1)C1(O)CCNC(c2ccc(F)cc2C)C1 (stereo not drawn) [Compound 275] | 0.85 (≈ 1.58 µM) | 1.35 (≈ 2.51 µM) | 140 |  | 
COc1nc2ccc(SC)cc2cc1C(c1ccc(Cl)cc1)C1(O)CCNCC1Cc1cccc(F)c1 (stereo not drawn) [Compound 283] | 3.39 (≈ 6.31 µM) | 3.39 (≈ 6.31 µM) | 184 |  | 
COc1nc2ccc(SC)cc2cc1C(c1ccc(Cl)cc1)C1(O)CCNC(CC2CCCCC2)C1 (stereo not drawn) [Compound 287] |  |  | 185 | 3.31 (≈ 6.3 µM) | 2.63 (≈ 5.01 µM)
COc1nc2ccc(S(C)(=O)=O)cc2cc1C(c1ccc(Cl)cc1)C1(O)CCNCC1Cc1cccc(F)c1 (stereo not drawn) [Compound 291] |  | 7.16 (≈ 12.6 µM) | 150 | 7.16 (≈ 12.6 µM) | 
COc1nc2ccc(SC)cc2cc1C(c1ccc(Cl)cc1)C1(O)CCNC(Cc2ccc(F)cc2)C1 (stereo not drawn) [Compound 299] | 1.70 (≈ 3.17 µM) | 1.35 (≈ 2.51 µM) | 110 |  | 
COc1nc2ccc(SC)cc2cc1C(c1ccc(Cl)cc1)C1(O)CCNC(Cc2ccc(F)cc2)C1 (stereo not drawn) [Compound 300] | 1.07 (≈ 1.99 µM) | 1.70 (≈ 3.17 µM) | 90 |  | 
COc1nc2ccc(SC)cc2cc1C(c1ccc(Cl)cc1)C1(O)CCNC(Cc2ccc(F)cc2)C1 (stereo not drawn) [Compound 301] | 6.76 (≈ 12.6 µM) | 6.76 (≈ 12.6 µM) | 170 |  | 
COc1nc2ccc(SC)cc2cc1C(c1ccc(Cl)cc1)C1(O)CCNC(Cc2ccc(F)cc2)C1 (stereo not drawn) [Compound 302] | 2.14 (≈ 3.98 µM) | 1.35 (≈ 2.51 µM) | 120 |  | 
COc1nc2ccc(SC)cc2cc1C(c1cccc(Cl)c1)C1(O)CCNC(Cc2ccc(F)cc2F)C1 (stereo not drawn) [Compound 318] | 1.76 (≈ 3.17 µM) | 1.76 (≈ 3.17 µM) | 133 |  | 
COc1nc2ccc(Br)cc2cc1C(c1ccc(Cl)cc1)C1(O)CCNC(Cc2ccc(F)cc2F)C1 (stereo not drawn) [Compound 320] | 3.71 (≈ 6.31 µM) | 2.95 (≈ 5.02 µM) | 159 |  | 
COc1nc2ccc(Br)cc2cc1C(c1ccc(Cl)cc1)C1(O)CCNC(Cc2ccc(F)cc2)C1 (stereo not drawn) [Compound 337] | 1.80 (≈ 3.16 µM) | 0.90 (≈ 1.58 µM) | 186 |  | 
COc1nc2ccc(Br)cc2cc1C(c1ccc(Cl)cc1)C1(O)CCNC(Cc2ccc(F)cc2)C1 (stereo not drawn) [Compound 338] | 1.80 (≈ 3.16 µM) | 1.43 (≈ 2.51 µM) | 198 |  | 
COc1nc2ccc(Br)cc2cc1C(c1ccc(Cl)cc1)C1(O)CCNC(Cc2ccc(F)cc2)C1 (stereo not drawn) [Compound 339] | 3.60 (≈ 6.32 µM) | 1.80 (≈ 3.16 µM) | 176 |  | 
COc1nc2ccc(Br)cc2cc1C(c1ccc(Cl)cc1)C1(O)CCNC(Cc2ccc(F)cc2)C1 (stereo not drawn) [Compound 340] | 2.86 (≈ 5.02 µM) | 1.43 (≈ 2.51 µM) | 132 |  | 
COc1nc2ccc(Cl)cc2cc1C(c1ccc(SC)cc1)C1(O)CCNC(c2ccc(F)cc2C)C1 (stereo not drawn) [Compound 351] | 1.70 (≈ 3.17 µM) | 1.35 (≈ 2.51 µM) | 128 to 130 |  | 
COc1nc2ccc(Cl)cc2cc1C(c1ccc(SC)cc1)C1(O)CCNC(c2ccc(F)cc2C)C1 (stereo not drawn) [Compound 352] | 1.70 (≈ 3.17 µM) | 0.85 (≈ 1.58 µM) | 123 to 125 |  | 
COc1nc2ccc(Br)cc2cc1C(c1ccc(Cl)cc1)C1(O)CCNC(Cc2ccc(F)cc2)C1 (stereo not drawn) [Compound 355] | 3.60 (≈ 6.32 µM) | 1.43 (≈ 2.51 µM) | 190 |  | 

Source: US9617244B2, “Antibacterial quinoline derivatives” (JANSSEN PHARMACEUTICA NV, priority 2012, dated 2017)
